Tests used:
[1] = test system: skin color (hyper pigmentation); test: Skin whitening test: skin color changes (L* value), Minolta chromameter; assay type: in vivo, human; settings: for Hyper pigmentation Reduction - Skin Color Data, Max % Improvement / Hyper pigmentation Reduction - Skin Color Data, % Difference: 0.2% Ac-Gly-β-Ala sample; for Hyper pigmentation Reduction - Skin Color Data, % Difference: L* value
Protocol: In this example, the in-vivo skin test is finished by AMA Laboratories USA. The skin color changes are evaluated with Minolta chromameter color computer system. The Age spot photography is evaluated with Reverse Photo Engineering Quantitative Analysis.
In terms of skin color changes, the participants were women aged 25-48 years old, wherein nine of the participants were caucasian, and one was Asian. The participants were tested before (baseline), and after using 14, 28, 56 days with Minolta chromameter color computer system to perform the skin color change evaluation. And the samples used for the skin color change evaluation is 0.2% Ac-Gly-β-Ala.

[2] = test system: Human IL-6 secretion, Normal Human Epidermal Keratinocytes (NHEK); test: Human IL-6 production in UVB-irradiated NHEK (ELISA); assay type: cell-based; settings: for Human IL-6 Content, Average: 40 mJ/cm^2 UVB; for Human IL-6 Content, Average / Human IL-6 Content, Entry 1 / Human IL-6 Content, Entry 2 / Human IL-6 Content, Entry 3 / Human IL-6 Content, Entry4: Positive Control 100%; for Human IL-6 Content, Entry 1 / Human IL-6 Content, Entry 2: passage 2 + 2, 40 mJ/cm^2 UVB; for Human IL-6 Content, Entry 3 / Human IL-6 Content, Entry4: passage 2 + 3, 40 mJ/cm^2 UVB
Protocol: Normal Human Epidermal Keratinocytes (NHEK) (PromoCell No. C-12008);
Positive Control: 40 mJ/cm^2 UVB,
Negative Control: No UVB irradiation;
a. Rinse the confluent NHEK cells with sterile D-PBS then trypsinize all cells and perform cell counting.
b. Dilute the cell density to 4˜8E+04/mL and seed 0.5 mL cell liquid (equals to 2˜4E+04 cells) each well in 24 well plate.
c. Incubate NHEK cells at 37° C., 5% CO2 until subconfluence.
d. Prepared dosing solution of testing material in Complete Medium: 0.4%, 0.2%, 0.1%, 0.05%.
e. Rinse the NHEK cells with sterile D-PBS and discard rinse buffer. Add 400 μL of controls and testing materials in different concentrations into NHEK cells in 24 well plates.
f. Pre-incubate NHEK cells with testing material at 37° C., 5% CO2 for about 6 hours.
g. After pre-incubating for about 6 hours, wash the NHEK cells with sterile D-PBS for twice then add […] sterile D-PBS for UVB irradiation.
h. UVB intensity is about 2300 μW/cm^2 and UVB energy is about 40 mJ/cm^2.
i. After UVB irradiation, discard sterile D-PBS and wash again. Add 400 μL of the same dosing solution in to each wells.
j. Post-incubate at 37° C., 5% CO2 for about 18 hours.
k. After post-incubating for 18 hours, collect the supernatant of controls and testing materials.
l. Determine the IL-6/IL-8 content of the supernatant by R&D ELISA kit as mentioned previously.
Normal Human Epidermal Keratinocytes (NHEK) were treated by the above-mentioned glycine derivatives for evaluating their anti-inflammatory effect on keratinocytes in this example.

[3] = test system: Mlph (melanophilin) mRNA in B16-F10 cells; test: Reduction of melanophilin expression on transcriptional level (qPCR); assay type: cell-based, Murine
Protocol: Murine melanoma cell line B16-F10 (BCRC No. 60031)
a. Rinse the confluent B16-F10 cells with sterile D-PBS then trypsinize all cells and perform cell counting.
b. Seeding 2E+06 cells per 10-cm dish.
c. Incubate B16F10 cells at 37° C., 5% CO2 for about 24 hours.
d. Prepared 0.5% testing material in Complete Medium.
e. Discard the medium and add 9 mL Complete Medium and 0.5% testing material into B16-F10 cells in 10-cm dish.
f. Incubate B16-F10 cells at 37° C., 5% CO2 for about 1 hour.
g. After incubating for about 1 hour, discard the supernatant and wash the B16-F10 cells with sterile D-PBS.
h. Add 3 mL Trizol to suspend cells and qPCR test by Welgene Biotech Co., Ltd (outsourcing test).

[4] = test system: Mouse IL-6 secretion, RAW264.7; test: Mouse IL-6 production in Raw264.7 cells (ELISA); assay type: cell-based; settings: for Mouse IL-6 Content, Average / Mouse IL-6 Content, Entry 2 / Mouse IL-6 Content, Entry 3 / Mouse IL-6 Content, Entry 1: Raw264.7, LPS & IFN-r, 24 hours, Positive Control 100%; for Mouse IL-6 Content, Entry 2: passage N + 3; for Mouse IL-6 Content, Entry 3: passage N + 6; for Mouse IL-6 Content, Entry 1: passage N + 7
Protocol: Murine macrophage cell line RAW264.7 (BCRC No. 60001)
Complete Medium (as negative control): DMEM medium with 10% Fetal Bovine Serum
Testing Medium (as positive control): 100 ng/mL LPS and 10 ng/mL IFN-r in Complete Medium
a. Rinse the confluent Raw264.7 cells with sterile D-PBS then trypsinize all cells and perform cell counting.
b. Dilute the cell density to 2E+05/mL and seed 0.1 mL cell liquid (equals to 2E+04 cells) each well in 96-well plate.
c. Incubate Raw264.7 cells at 37° C., 5% CO2 for about 24 hours.
d. Prepared 2× dosing solution of testing material in 2× Testing Medium (means w/ 200 ng/mL ? LPS&20 ng/mL ? IFN-r): 0.8%, 0.4%, 0.2%, 0.1% (Final testing material: 0.4%, 0.2%, 0.1%, 0.05%)
e. […] Add 100 μL controls and testing materials in different concentrations into Raw264.7 cells in 96 well plates. Controls/Test materials should be tested at least three wells.
f. Incubate Raw264.7 cells at 37° C., 5% CO2 for about 24 hours.
g. After incubating for about 24 hours, collect the supernatant of controls and testing materials.
h. Determine the IL-6/MIP-2 content of the supernatant by R&D ELISA kit as mentioned previously.

[5] = 0.5% Ac-Gly-β-Ala, B16-F10, about 1 hour, Control 100%

For `CC(=O)NCC(=O)NCCC(=O)O` [Ac-Gly-β-Ala, 3-(2-acetylamino-acetylamino)-propionic acid], the “Hyper pigmentation Reduction - Skin Color Data, Max % Improvement” value ([1]; Day 14) was 62.84%, the “Hyper pigmentation Reduction - Skin Color Data, % Difference” value ([1]; Day 14 vs baseline) was 26.90%* and the “Hyper pigmentation Reduction - Skin Color Data, Max % Improvement” value ([1]; Day 28) was 87.34%. For the same molecule, the “Hyper pigmentation Reduction - Skin Color Data, % Difference” value ([1]; Day 28 vs baseline) was 41.07%*, the “Hyper pigmentation Reduction - Skin Color Data, Max % Improvement” value ([1]; Day 56) was 87.97% and the “Hyper pigmentation Reduction - Skin Color Data, % Difference” value ([1]; Day 56 vs baseline) was 41.64%*. For the same molecule, the “L* value of skin” value ([1]; test sample with 0.2% Ac-Gly-β-Ala) was “can increase the L* value of skin”, the “IL-6 production, dose dependence” value ([2]; 0.05%-0.4%, UVB) was “dose-dependently inhibited” and the “Human IL-6 Content, Average” value ([2]; Table 6, 0.05%) was 59%. The “Human IL-6 Content, Entry 1” value ([2]; Table 6, 0.05%) was 68%, the “Human IL-6 Content, Entry 2” value ([2]; Table 6, 0.05%) was 58% and the “Human IL-6 Content, Entry 3” value ([2]; Table 6, 0.05%) was 49%. For the same molecule, the “Human IL-6 Content, Entry4” value ([2]; Table 6, 0.05%) was 62%, the “Human IL-6 Content, Average” value ([2]; Table 6, 0.10%) was 34% and the “Human IL-6 Content, Entry 1” value ([2]; Table 6, 0.10%) was 43%. For the same molecule, the “Human IL-6 Content, Entry 2” value ([2]; Table 6, 0.10%) was 25%, the “Human IL-6 Content, Entry 3” value ([2]; Table 6, 0.10%) was 28% and the “Human IL-6 Content, Entry4” value ([2]; Table 6, 0.10%) was 42%. For the same molecule, the “Human IL-6 Content, Average” value ([2]; Table 6, 0.20%) was 15%, the “Human IL-6 Content, Entry 1” value ([2]; Table 6, 0.20%) was 19% and the “Human IL-6 Content, Entry 2” value ([2]; Table 6, 0.20%) was 10%. The “Human IL-6 Content, Entry 3” value ([2]; Table 6, 0.20%) was 10%, the “Human IL-6 Content, Entry4” value ([2]; Table 6, 0.20%) was 20% and the “Human IL-6 Content, Entry 1” value ([2]; Table 6, 0.40%) was 0%. The “Human IL-6 Content, Entry 2” value ([2]; Table 6, 0.40%) was 0%, the “Human IL-6 Content, Entry 3” value ([2]; Table 6, 0.40%) was 0% and the “Human IL-6 Content, Entry4” value ([2]; Table 6, 0.40%) was 10%. The “Mlph mRNA expression level, Average” value [3, 5] was 55%, the “Mlph mRNA expression level, Entry 1” value [3, 5] was 80% and the “Mlph mRNA expression level, Entry 2” value [3, 5] was 40%. For the same molecule, the “Mlph mRNA expression level, Entry 3” value [3, 5] was 46%, the “effect on Mlph in transcriptional (mRNA) level” value ([3]; 0.5%, B16-F10) was “inhibitory effect” and the “IL-6 production, dose dependence” value ([4]; 0.05%-0.4%, Raw264.7) was “dose-dependently inhibited”. The “Mouse IL-6 Content, Average” value ([4]; 0.05%) was 97%, the “Mouse IL-6 Content, Entry 2” value ([4]; 0.05%) was 105% and the “Mouse IL-6 Content, Entry 3” value ([4]; 0.05%) was 95%. For the same molecule, the “Mouse IL-6 Content, Entry 1” value ([4]; 0.05%) was 91%, the “Mouse IL-6 Content, Average” value ([4]; 0.10%) was 86% and the “Mouse IL-6 Content, Entry 2” value ([4]; 0.10%) was 96%. For the same molecule, the “Mouse IL-6 Content, Entry 3” value ([4]; 0.10%) was 78%, the “Mouse IL-6 Content, Entry 1” value ([4]; 0.10%) was 85% and the “Mouse IL-6 Content, Average” value ([4]; 0.20%) was 54%. The “Mouse IL-6 Content, Entry 2” value ([4]; 0.20%) was 58%, the “Mouse IL-6 Content, Entry 3” value ([4]; 0.20%) was 42% and the “Mouse IL-6 Content, Entry 1” value ([4]; 0.20%) was 64%. The “Mouse IL-6 Content, Average” value ([4]; 0.40%) was 34%, the “Mouse IL-6 Content, Entry 2” value ([4]; 0.40%) was 40% and the “Mouse IL-6 Content, Entry 3” value ([4]; 0.40%) was 40%. The “Mouse IL-6 Content, Entry 1” value ([4]; 0.40%) was 24%.

Source: patent publication US20140314697A1, “Method for Inhibiting Inflammation and Reducing Melanophilin Expression with Glycine Derivatives And the Composition Thereof” (CORUM INC., priority 2013, published 2014)
